The subject of series [1] is P.aeruginosa (IFO 3445). The series is described as follows: Antibacterial activities: minimum inhibitory concentration (standard method of Japan Society of Chemotherapy). It counts as cell-based. The conditions noted are these: Pseudomonas aeruginosa, IFO3445. How it is done:
(§1) The minimum inhibitory concentration [MIC: µg/mℓ] was measured in accordance with the standard method of Japan Society of Chemotherapy [CHEMOTHERAPY, 29, No.1, 76-79(1981)]. The results are shown in Table 13 in which compound numbers are the same as those synthesized in the above Examples.

Series [2] has as its system S.aureus 209P (IFO 12732). The series is described as above. It counts as cell-based. As to conditions: Staphylococcus aureus. How it is done:
as §1

The test system of series [3] is E.coli NIH JC-2 (IFO*12734). The description is as above. It counts as cell-based. As to conditions: Escherichia coli. How it is done:
as §1

Series [4] can be described thus: Photo-toxicity: ear abnormality after intravenous dosing and ultraviolet exposure. The conditions noted are these: 40 mg/kg/10 mℓ intravenously, female ICR mouse, headed 0 hour; for Number of toxicity-developed cases: ultraviolet rays 320-400 nm, 1.8 mW/cm²/sec, 4 hours; for ranking points: ultraviolet rays 4 hours, 0 = no abnormality, 1 = slight erythema, 2 = medium erythema, 3 = heavy erythema or edema. It counts as in vivo. On the procedure:
After 40 mg/kg/10 mℓ of the test compound were administered intravenously to a female ICR mouse (5-6 week old), it was exposed to ultraviolet rays (320-400 nm, 1.8 mW/cm²/sec) for 4 hours. […] The abnormality on the ears was ranked as 0 point in the case of no abnormality, 1 point in the case of slight erythema, 2 points in the case of medium erythema, and 3 points in the case of heavy erythema or edema.

Series [5] in a line: Absorption and excretion: recovery in bile after oral administration. It counts as in vivo. As to conditions: rats with polyethylene tube in choledoch, bile collected over 24 hours. On the procedure:
The absorption and excretion of the orallyadministered invention compound were tested by measuring the recovery in urine and that in bile according to the following method.
After the test compound was prepared in a similar manner to the measurement of the recovery in urine, it was orally administered to the rats who had had their choledoch inserted with a polyethylene tube. The bile was collected over 24 hours. The concentration of the test compound in the bile was examined in the similar manner to the above and the excretion rate in the bile for 24 hours was determined.

Each structure is given as a SMILES string. ≈ marks a conversion by molar mass, not a printed value.

As for `C[C@H]1CN(c2cc3c(c(N)c2F)c(=O)c(C(=O)O)cn3-c2ccon2)C[C@H]1N` [compound 58], the minimal inhibitory concentration (MIC) in series [1] turned out to be 0.2 µg/mL (≈ 0.516 µM); in series [2], 0.05 µg/mL (≈ 0.129 µM); in series [3] it was 0.013 µg/mL (≈ 0.0336 µM).
For `Cl.N[C@H]1CCN(c2cc3c(cc2F)c(=O)c(C(=O)O)cn3-c2ccon2)C1` [Compound No. 4, 7-{3(S)-aminopyrrolidin-1-yl}-6-fluoro-1-(isoxazol-3-yl)-1,4-dihydro-4-oxoquinoline-3-carboxylic acid hydrochloride], the “Number of toxicity-developed cases” value in series [4] (first column), in series [4] (second column) and in series [4] (third column) was 0/6 each time. Besides, the ranking points in series [4] (first column), in series [4] (second column) and in series [4] (third column) was 0 in each case. Moreover, the MIC in series [1] came out at 0.1 µg/mL; in series [2], 0.1 µg/mL; in series [3], 0.025 µg/mL.
Take `Nc1c(F)c(N2CC[C@H](N)C2)cc2c1c(=O)c(C(=O)O)cn2-c1ccon1` [compound 57]: the MIC in series [1] was determined as 0.1 µg/mL (≈ 0.268 µM); in series [2] it was 0.05 µg/mL (≈ 0.134 µM); in series [3], 0.013 µg/mL (≈ 0.0348 µM).
Taken in the same sequence, the figures for `CC1COc2c(N3CCN(C)CC3)c(F)cc3c(=O)c(C(=O)O)cn1c23` (stereo not shown) [Ofloxacin, reference compound] were 1.56 µg/mL (≈ 4.32 µM), 0.39 µg/mL (≈ 1.08 µM) and 0.1 µg/mL (≈ 0.277 µM).
For `C[C@H]1CN(c2cc3c(cc2F)c(=O)c(C(=O)O)cn3-c2ccon2)C[C@H]1N` [Compound No. 5], the “Number of toxicity-developed cases” value in series [4] (first column), in series [4] (second column) and in series [4] (third column) was 0/6 in each case. Further, the ranking points in series [4] (first column), in series [4] (second column) and in series [4] (third column) was 0 in each case. For the same compound, the MIC in series [1] worked out at 0.2 µg/mL (≈ 0.537 µM); in series [2], 0.1 µg/mL (≈ 0.269 µM); in series [3], 0.025 µg/mL (≈ 0.0671 µM). In addition, the “Excretion rate (24 hrs, %) in bile” value in series [5] came to 1.2%.
Regarding `CCn1cc(C(=O)O)c(=O)c2cc(F)c(N3CCNCC3)cc21` [Norfloxacin, reference compound], the ranking points in series [4] (first column) is given as 1.0; in series [4] (second column), 1.0; in series [4] (third column), 0.
As to `N[C@H]1CCN(c2cc3c(c(Cl)c2F)c(=O)c(C(=O)O)cn3-c2ccon2)C1` [compound 49], the MIC stood at 0.2 µg/mL (≈ 0.509 µM) in series [1], 0.2 µg/mL (≈ 0.509 µM) in series [2] and 0.05 µg/mL (≈ 0.127 µM) in series [3].
With `CCn1cc(C(=O)O)c(=O)c2cc(F)c(N3CCNCC3)nc21` [Enoxacin, reference compound], the results for the ranking points in series [4] (first column), in series [4] (second column) and in series [4] (third column) were 1.0, 0.4 and 0.3, respectively.

Source of the values: EP0700912A1, “QUINOLONE DERIVATIVE OR SALT THEREOF, AND ANTIBACTERIAL CONTAINING THE SAME” (priority 1993, dated 1994).
